Source: patent US8741886B2, “Baclofen and acamprosate based therapy of neurological disorders” (Pharnext, priority 2011, dated 2014)

Assays:
[1] = test system: rat primary cortical cells; assay: Toxicity of human Aβ1-42 peptide on primary cortical neuron cells: LDH release; format: cell-based; settings: for effect on Aβ1-42 intoxication, LDH release (in words): Aβ1-42 10 μM, single drugs at the concentrations used in the combination
Method: Rat cortical neurons were cultured as described by Singer et al. (47). Briefly pregnant female rats of 15 days gestation were killed by cervical dislocation (Rats Wistar) and the foetuses were removed from the uterus. The cortex was removed and placed in ice-cold medium of Leibovitz (L15) containing 2% of Penicillin 10.000 U/ml and Streptomycin 10 mg/ml and 1% of bovine serum albumin (BSA). Cortexes were dissociated by trypsin for 20 min at 37° C. (0.05%). The reaction was stopped by the addition of Dulbecco's modified Eagle's medium (DMEM) containing DNasel grade II and 10% of foetal calf serum (FCS). Cells were then mechanically dissociated by 3 serial passages through a 10 ml pipette and centrifuged at 515×g for 10 min at +4° C. The supernatant was discarded and the pellet of cells was re-suspended in a defined culture medium consisting of Neurobasal supplemented with B27 (2%), L-glutamine (0.2 mM), 2% of PS solution and 10 ng/ml of BDNF. Viable cells were counted in a Neubauer cytometer using the trypan blue exclusion test. The cells were seeded at a density of 30 000 cells/well in 96 well-plates (wells were pre-coated with poly-L-lysine (10 μg/ml)) and were cultured at +37° C. in a humidified air (95%)/CO2 (5%) atmosphere.
Briefly, Aβ1-42 peptide was reconstituted in define culture medium at 40 μM (mother solution) and was slowly shaken at +37° C. for 3 days in dark. The control medium was prepared in the same conditions.
After 10 days of neuron culture, test compounds were solved in culture medium (+0.1% DMSO) and then pre-incubated with neurons for 1 hour before the Aβ1-42 application (in a final volume per culture well of 100 μl). One hour after test compound(s) incubation, 100 μl of Aβ1-42 peptide was added to a final concentration of 10 μM diluted in presence of drug(s), in order to avoid further test compound(s) dilutions. Cortical neurons were intoxicated for 24 hours. Three separate cultures were performed per condition, 6 wells per condition.
BDNF (50 ng/ml) and Estradiol-β (150 nM) were used as positive control and reference compounds respectively. Three separate cultures will be performed per condition, 12 wells per condition.
Estradiol-β at 150 nM was used as a positive control (FIG. 4).
Estradiol-β was solved in culture medium and pre-incubated for 1 h before the amyloid-β1-42 application.
The following conditions were assessed: • CONTROL PLAQUE: 12 wells/condition • Negative Control: medium alone+0.1% DMSO • Intoxication: amyloid-β1-42 (10 μM) for 24 h • Reference compound: Estradiol (150 nM) 1 hr. • DRUG PLATE: 6 wells/condition • Negative Control: medium alone+0.1% DMSO • Intoxication: amyloid-β1-42 (10 μM) for 24 h • Test compound(s): test compound(s)—1 hr followed by amyloid-β1-42 (10 μM) for 24 h Lactate Dehydrogenase (LDH) Activity Assay
24 hours after intoxication, the supernatant was taken off and analyzed with Cytotoxicity Detection Kit (LDH, Roche Applied Science, ref: 11644793001, batch: 11800300). This colorimetric assay for the quantification of cell toxicity is based on the measurement of lactate dehydrogenase (LDH) activity released from the cytosol of dying cells into the supernatant.
Data were expressed in percentage of control conditions (no intoxication, no amyloid=100%) in order to express the amyloid injury. All values were expressed as mean+/−SEM (s.e.mean) of the 3 cultures (n=6 wells per condition). Statistic analyses were done on the different conditions (ONE-WAY ANOVA followed by the Dunnett's test when it was allowed, Statview software version 5.0).

[2] = test system: mice injected i.c.v. with Aβ25-35 peptide; assay: Spontaneous alternation, Y-maze test, after i.c.v. Aβ25-35; format: in vivo; settings: drugs alone: Donepezil 0.25 mg/kg/day, Acamprosate 32 μg/kg/day, Baclofen 480 μg/kg/day
From the text: The Y-maze is made of grey polyvinylchloride. Each arm is 40 cm long, 13 cm high, 3 cm wide at the bottom, 10 cm wide at the top, and converging at an equal angle. […] An alternation is defined as entries into all three arms on consecutive occasions.

[3] = test system: neuronal cortical cells; assay: Glutamate toxicity assay on primary cortical neurons (neurite network, neurofilament immunostaining); format: cell-based, rat; settings: Baclofen 400 nM, Acamprosate 1.6 nM; glutamate 40 μM, 20 min
Method: The efficacy of drug combinations of the invention is assessed on primary cortical neuron cells. The protocol which is used in these assays is the same as described in section A.I.2 above.
After 12 days of neuron culture, drugs of the candidate combinations are solved in culture medium (+0.1% DMSO). Candidate combinations are then pre-incubated with neurons for 1 hour before the Glutamate injury. One hour after incubation with, Glutamate is added for 20 min, to a final concentration of 40 μM, in presence of candidate combinations, in order to avoid further drug dilutions. At the end of the incubation, medium is changed with medium with candidate combination but without glutamate. The culture is fixed 24 hours after glutamate injury. MK801 (Dizocilpinehydrogen maleate, 77086-22-7-20 μM) is used as a positive control.
After permeabilization with saponin (Sigma), cells are blocked for 2 h with PBS containing 10% goat serum, then the cells are incubated with mouse monoclonal primary antibody against Neurofilament antibody (NF, Sigma).
Nuclei of cells are labeled by a fluorescent marker (Hoechst solution, SIGMA), and neurite network quantified. Six wells per condition are used to assess neuronal survival in 3 different cultures.

SMILES	prevention of Aβ1-42 intoxication by pre-treatment ([1]; 8 nM)	effect on Aβ1-42 intoxication, LDH release (in words) [1]	effect on percentage of alternation (Y-maze), low doses (in words) [2]	effect on glutamate intoxication (in words) [3]
CC(=O)NCCCS(=O)(=O)O [Acamprosate]	99%	no significant effect	no significant effect	no significant effect
NCC(CC(=O)O)c1ccc(Cl)cc1 (stereo not shown) [Baclofen]	–	no significant effect	no significant effect	no significant effect
